{
  "source": "patent US4160829A",
  "about": "“Antibacterial 1,2,4-oxadiazolylacetamido cephalosporins” (Gist-Brocades N.V., priority 1972, dated 1979)",
  "key": {"Bac.Subt.ATCC 6633": {"system": "Bac.Subt.ATCC 6633", "assay": "agar serial dilution test", "type": "cell-based, Bacillus subtilis", "details": "Bacillus subtilis, ATCC6633, 24 h, agar serial dilution, 24 hours, 37° C.; read-out: minimal inhibitory concentration (MIC)"}, "Staph.aureus A 321": {"system": "Staph.aureus A 321", "assay": "agar serial dilution test", "type": "cell-based, Staphylococcus aureus", "details": "Staphylococcus aureus, A321, 24 h, agar serial dilution, 24 hours, 37° C.; read-out: minimal inhibitory concentration (MIC)"}, "Staph.aureus A 2000": {"system": "Staph.aureus A 2000", "assay": "agar serial dilution test", "type": "cell-based, Staphylococcus aureus", "details": "Staphylococcus aureus, A2000, 24 h, agar serial dilution, 24 hours, 37° C.; read-out: minimal inhibitory concentration (MIC)"}, "Staph.aureus A 2001": {"system": "Staph.aureus A 2001", "assay": "agar serial dilution test", "type": "cell-based, Staphylococcus aureus", "details": "Staphylococcus aureus, A2001, 24 h, agar serial dilution, 24 hours, 37° C.; read-out: minimal inhibitory concentration (MIC)"}, "Strep. faec. L 80": {"system": "Strep. faec. L 80", "assay": "agar serial dilution test", "type": "cell-based, Streptococcus faecalis", "details": "Enterococcus faecalis; agar serial dilution, 24 hours, 37° C.; read-out: minimal inhibitory concentration (MIC)"}, "Pseud.aerug. H 10": {"system": "Pseud.aerug. H 10", "assay": "agar serial dilution test", "type": "cell-based", "details": "agar serial dilution, 24 hours, 37° C.; read-out: minimal inhibitory concentration (MIC)"}, "Pseud.aerug. 2396": {"system": "Pseud.aerug. 2396", "assay": "agar serial dilution test", "type": "cell-based", "details": "agar serial dilution, 24 hours, 37° C.; read-out: minimal inhibitory concentration (MIC)"}, "Prot.mirab. A 1200 [1]": {"system": "Prot.mirab. A 1200", "assay": "agar serial dilution test", "type": "cell-based, Proteus mirabilis", "details": "Proteus mirabilis, 24 h, agar serial dilution, 24 hours, 37° C.; read-out: minimal inhibitory concentration (MIC)"}, "Sarc. lutea ATCC 9341": {"system": "Sarc. lutea ATCC 9341", "assay": "agar serial dilution test", "type": "cell-based", "details": "Micrococcus luteus, ATCC9341, 24 hours, 37° C., read-out: minimal inhibitory concentration (MIC)"}, "Prot.mirab. A 1200 [2]": {"system": "Prot.mirab. A 1200", "assay": "micro serial dilution test", "type": "cell-based", "details": "Proteus mirabilis; micro serial dilution (in brackets), about 18 hours, 30° C. or 37° C.; read-out: minimal inhibitory concentration (MIC)"}},
  "data": [
    {"compound": "Cc1noc(CC(=O)N[C@@H]2C(=O)N3C(C(=O)O)=C(CSc4nnnn4C)CS[C@H]23)n1", "note": "[Compound G, sodium-7[(3-methyl-1,2,4-oxadiazol-5-yl)-acetamido] 3 [1-methyl-tetrazol-5-yl-mercaptomethyl] 3-cephem-4-carboxylate]", "values": [
      {"measurement": "MIC", "setting": "Bac.Subt.ATCC 6633", "result": 0.25, "unit": "µg/mL"},
      {"measurement": "MIC", "setting": "Staph.aureus A 321", "result": 0.25, "unit": "µg/mL"},
      {"measurement": "MIC", "setting": "Staph.aureus A 2000", "result": 0.75, "unit": "µg/mL"},
      {"measurement": "MIC", "setting": "Staph.aureus A 2001", "result": 0.5, "unit": "µg/mL"},
      {"measurement": "MIC", "setting": "Strep. faec. L 80", "result": 50, "unit": "µg/mL"},
      {"measurement": "MIC", "setting": "Pseud.aerug. H 10", "result": 100, "unit": "µg/mL"},
      {"measurement": "MIC", "setting": "Pseud.aerug. 2396", "result": 100, "unit": "µg/mL"},
      {"measurement": "MIC", "setting": "Prot.mirab. A 1200 [1]", "result": 25, "unit": "µg/mL"},
      {"measurement": "MIC", "setting": "Sarc. lutea ATCC 9341", "result": 0.5, "unit": "µg/mL"},
      {"measurement": "MIC", "setting": "Prot.mirab. A 1200 [2]", "result": 15, "unit": "µg/mL"}
    ]}
  ]
}
